“And” between values parts separate entries of the source, which are not always exact repeats. Identical values can stand only once.

Assay [1] has as its system C57BL/6 mice subjected to liver IR. In words: Murine model of liver ischemia reperfusion (hepatic IR): plasma ALT and creatinine. In kind it is in vivo, mouse.
For assay [2], the system named is human epithelial HK-2 cell line. As to the kind of experiment: Kinase phosphorylation and HSP27 expression in HK-2 cells. In kind it is cell-based. Conditions: HK-2 (data not shown). The text has this:
As shown above, Sg1P protects human endothelial cells, and does so through the same mechanism as shown in mouse tissue.

Assay [3] relates to SK2 KO mice subjected to liver IR. In words: Liver IR in SK2 KO mice: plasma ALT and creatinine. Type of assay: in vivo, mouse. Conditions: SK2KO, hepatic IR 24 h. How it is done: The effects of administering Sg1P (0.1 mg/kg i.v. and 0.2 mg/kg s.c.) on liver and renal injury were also determined in the KO mice and are also shown in Tables 9 and 10 below.
The subject of assay [4] is C57BL/6 mice subjected to liver IR. As to the kind of experiment: Kidney H&E histology after liver IR. In kind it is in vivo, mouse. The settings on record: vs vehicle-treated controls. From the text: Liver IR-induced AKI in mice shared similar histological changes observed in human AKI associated with liver failure, as observed in H&E slides of kidney sections taken from the mice (see FIG. 3). Multifocal acute tubular injury including individual cell necrosis involving the juxtamedullary proximal tubules of the S3 segment was observed. […] Endothelial apoptosis of peritubular capillaries was also visible in H&E sections as linear arrays of apoptotic bodies corresponding to the interstitial capillary lining endothelium. […] The number of glomeruli with detectable juxtaglomerular apparatus and the number of cells per juxtaglomerular apparatus were both increased after liver IR, indicating hyperplasia of the juxtaglomerular apparatus. […] Liver IR produced large necrotic areas of liver tissue. The average percentage of necrotic areas in liver samples taken from liver IR mice were 92%±2% (n=6), while no necrosis was found in sham-operated mice. Livers were also analyzed for the degree of hepatocellular damage.

Assay [5] shares this test system. In words: Pro-inflammatory mRNA (RT-PCR) and plasma TNF-α/IL-6 after liver IR. Type of assay: in vivo, mouse. How it is done:
(§1) Mice were anesthetized with intraperitoneal pentobarbital (50 mg/kg or to effect). Mice were placed under a heating lamp and on a 37° C. heating pad. After a midline laparotomy and intraperitoneal application of 20 U heparin, left lateral and median lobes of the liver were subjected to ischemia with a microaneurysm clip occluding the hepatic triad above the bifurcation. This method of partial hepatic ischemia results in a segmental (˜70%) hepatic ischemia but spares the right lobe of the liver and prevents mesenteric venous congestion by allowing portal decompression throughout the right and caudate lobes of the liver. The liver was then repositioned in the peritoneal cavity in its original location for 60 minutes. The liver was kept moist with gauze soaked in 0.9% normal saline. The body temperature was monitored by an infrared temperature sensor (Linear Laboratories, Fremont, Calif.) every 10 min. and maintained at 37° C. using a heating lamp and a heating pad. After 60 minutes, the liver was reperfused and the wound closed. Sham-operated mice were subjected to laparotomy and identical liver manipulations without vascular occlusion. Two, 4 and 24 hr after reperfusion, plasma was collected for the measurement of alanine aminotransferase (ALT), a common indicator of liver damage, as well as creatinine (Cr) a common indicator of kidney damage. The liver tissue subjected to IR was collected to measure percent liver necrosis (2, 4 and 24 hr after IR), neutrophil infiltration (with immunohistochemistry, 4 and 24 hr after IR), apoptosis (with terminal deoxynucleotidyl transferase-mediated dUTP nick end labeling staining, caspase 3 immunoblotting and DNA laddering, 24 hr after IR), and inflammation by RT-PCR for pro-inflammatory mRNAs (4 hr after IR).
The extent of the suppression was different between kidney and liver. […]

The test system is the same in assay [6]. As to the kind of experiment: Survival of mice after liver IR. In kind it is in vivo, mouse. Conditions: 24 hours post liver IR. The text has this:
Without Sg1P administration, 20% of mice subjected to liver IR stayed alive after 1 week. With Sg1P treatment, 50% of mice subjected to liver IR that received Sg1P remained alive after the same time period.

The test system is the same in assay [7]. In words: Apoptosis (TUNEL, DNA laddering, caspase 3) and F-actin (phalloidin) in liver and kidney after liver IR. In kind it is in vivo, mouse. How it is done: as §1
Apoptosis was detected in both liver and kidney taken from mice subjected to liver IR, through TUNEL staining, DNA laddering and caspase 3 fragmentation.

[8] abbreviates: 0.2 mg/kg i.v. 2 hours post-reperfusion.
The mark [9] stands for this setting: C57BL/6 mice, 60 min liver ischemia, 24 h reperfusion.
The mark [10] stands for this setting: single dose 0.1 mg/kg i.v. immediately before reperfusion.
Setting [11] is: single dose 0.2 mg/kg s.c. two hours after reperfusion.

In the case of `CCCCCCCCCCCCCCC[C@@H](O)[C@@H](N)COP(=O)(O)O` [Sg1P, sphinganine-1-phosphate], in assay [1] (setting [8]), the “ALT (liver protection)” value is given as 12063±593 U/L and the “Creatinine (kidney protection)” value was 0.93 ± 0.05 mg/dL. Moreover, in assay [1] (setting [9]), the “Serum ALT (mean)” value is 7474±557 U/L and 7474 U/L; the “Serum creatinine (mean)” value was 0.528 ± 0.07 mg/dL and 0.55 mg/dL. Besides, in assay [1] (dose response 0.01-1.0 mg/kg i.v. prior to reperfusion plus double dose s.c. 2 h after, serum creatinine and ALT), the “Most effective dose for treating both kidney and liver failure” value is given as 0.1 mg/kg i.v. prior to reperfusion followed by 0.2 mg/kg s.c. 2 hours after reperfusion. In assay [1] (non-nephrectomized mice), the “Reduction in the severity of liver injury (change in ALT levels)” value came to 50%. Besides, in assay [1] (setting [10]), the ALT came to 7197±753 U/L and the Cr was 0.58 ± 0.06 mg/dL. In assay [1] (setting [11]), this molecule gave an ALT of 14762±1732 U/L and a Cr of 0.98 ± 0.06 mg/dL. Besides, the “Phosphorylation of ERK/MAPK, Akt, HSP27 and HSP27 expression” value in assay [2] was “failed to phosphorylate ERK/MAPK, Akt and HSP27 and also failed to induce HSP27 expression”. Also, in assay [3], the “Creatinine (mean)” value was determined as 0.679 mg/dL. Also, the “ALT (mean)” value in assay [3] (0.1 mg/kg i.v. and 0.2 mg/kg s.c.) worked out at 7575.28 U/L. Further, the “Indications of AKI in kidney H&E slides” value in assay [4] is on record as “significantly less indications of AKI”. The “Liver IR-induced ICAM-1 and MIP-2 mRNA upregulation in kidney” value in assay [5] (kidney) is “suppressed”. In addition, the “Liver IR-induced upregulation of ICAM-1, KC, MCP-1 and MIP-2 mRNA in liver” value in assay [5] (liver) is “suppressed”. Moreover, the “Liver IR-induced increase in plasma TNF-α and IL-6” value in assay [5] (plasma) is given as “almost eliminated”. The Survival rate in assay [6] was roughly 90%. Also, in assay [7], the “Caspase 3 fragmentation in liver and kidney” value is “significantly reduced”; the “TUNEL staining, DNA laddering in liver and kidney” value was “significantly reduced”. Further, the “F-actin structure in liver and kidney (phalloidin)” value in assay [7] (vs vehicle) is given as “better-preserved F-actin structure”.

The record behind these values is US20110294874A1, “DIAGNOSIS AND THERAPY OF ORGAN DYSFUNCTION USING SPHINGANINE-1-PHOSPHATE” (The Trustees of Columbia University in the City of New York, priority 2008, published 2011).
